One may read the Kd as the equilibrium constant for the complex coming apart. Lower therefore signals a tighter complex.

The values below come from publication PMC7845643, “Predictive Rules of Efflux Inhibition and Avoidance in Pseudomonas aeruginosa” (mBio, 2021).

Each structure is given as a SMILES string. In brackets after ≈: the same amount, converted by molar mass.

Assay [1] concerns T1, Pseudomonas aeruginosa PAO1.
T1 construct: PAO1 (attTn7::mini-Tn7T-Gm-lacIq-pLAC-MCS)
The assay can be described thus: microbe, parasite or virus in culture. Also noted: 2-fold serial broth dilution MIC (at least 90% growth inhibition). The following applies: PAO1, read-out: MICs (mg/L) in strains: / PAO1. As to the method: (§1) Antibacterial activities were tested using a 2-fold serial dilution broth assay as described previously ([13]). The antibacterial activities are expressed as MIC (defined as at least 90% of growth inhibition) and IC50. To follow the fate of compounds in cells and to identify descriptors associated with different permeation barriers, we first separated the contributions of the OM barrier and active efflux in measured activities of compounds. For this purpose, the bacterial growth-inhibitory activities for all Rempex compounds were analyzed in four P. aeruginosa strains: the wild-type strain, PAO1; the PΔ6 strain, lacking six efflux pumps (ΔmexAB-oprM, ΔmexCD-oprJ, ΔmexXY, ΔmexJKL, ΔmexEF-oprN, and ΔtriABC); and their hyperporinated derivatives, PAO1-Pore and PΔ6-Pore, respectively ([39]). These strains were previously shown to differ dramatically in their susceptibilities to various classes of antibiotics because of differences in efflux proficiency and permeation across the OM ([13], [15]). To normalize to the differences in target inhibition potency among compounds, our key measured parameters were efflux ratios and OM barrier ratios, defined as the 50% inhibitory concentration for the parent/mutant (IC50 parent/IC50 mutant), for efflux mutants and hyperporinated mutants, respectively (see Table S1 in the supplemental material). More specifically, the IC50 ratios for PAO1/PAO1-Pore and PΔ6/PΔ6-Pore define the contribution of the OM barrier to the activities of compounds in the presence and absence of efflux, respectively. […] Activities of only a few compounds were slightly affected by the OM. Among them are compounds 58 and 46 (Fig. 1A), whose activity is enhanced by hyperporination of efflux-deficient PΔ6-Pore cells by 16- and 8-fold, respectively.

Assay [2] relates to T2, Pseudomonas aeruginosa PΔ6-Pore.
T2 construct: PΔ6-Pore (six efflux pumps deleted, hyperporinated with fhuADCΔ4L)
The assay can be described thus: microbe, parasite or virus in culture. On the set-up: 2-fold serial broth dilution MIC (at least 90% growth inhibition). The following applies: read-out: MICs (mg/L) in strains: / D6-Pore. The procedure: as §1

Assay [3] deals with T3, Pseudomonas aeruginosa PAO1-Pore.
T3 construct: PAO1-Pore (hyperporinated, attTn7::mini-Tn7T-Gmr-lacIq-pLAC-fhuADCΔ4L)
The assay can be described thus: microbe, parasite or virus in culture. Also noted: 2-fold serial broth dilution MIC (at least 90% growth inhibition). The following applies: PAO1, read-out: MICs (mg/L) in strains: / PAO1-Pore. The procedure:
as §1

The subject of assay [4] is T4, Pseudomonas aeruginosa PΔ6.
T4 construct: PΔ6 (PAO1 ΔmexAB-oprM ΔmexCD-oprJ ΔmexXY ΔmexJKL ΔmexEF-oprN ΔtriABC, efflux-deficient)
The assay can be described thus: microbe, parasite or virus in culture. Also noted: 2-fold serial broth dilution MIC (at least 90% growth inhibition). The following applies: read-out: MICs (mg/L) in strains: / D6. The procedure: as §1

For another assay, the target named is T5, MexB (Pseudomonas aeruginosa, UniProt P52002).
T5 construct: purified MexB immobilized by amine coupling
The assay can be described thus: SPR (Biacore T200, CM5 chip, immobilized MexB, kinetic fit). The format is binding. In general terms: Surface plasmon resonance follows binding to a sensor surface in real time, without labels.

T5 sequence (P52002 whole entry): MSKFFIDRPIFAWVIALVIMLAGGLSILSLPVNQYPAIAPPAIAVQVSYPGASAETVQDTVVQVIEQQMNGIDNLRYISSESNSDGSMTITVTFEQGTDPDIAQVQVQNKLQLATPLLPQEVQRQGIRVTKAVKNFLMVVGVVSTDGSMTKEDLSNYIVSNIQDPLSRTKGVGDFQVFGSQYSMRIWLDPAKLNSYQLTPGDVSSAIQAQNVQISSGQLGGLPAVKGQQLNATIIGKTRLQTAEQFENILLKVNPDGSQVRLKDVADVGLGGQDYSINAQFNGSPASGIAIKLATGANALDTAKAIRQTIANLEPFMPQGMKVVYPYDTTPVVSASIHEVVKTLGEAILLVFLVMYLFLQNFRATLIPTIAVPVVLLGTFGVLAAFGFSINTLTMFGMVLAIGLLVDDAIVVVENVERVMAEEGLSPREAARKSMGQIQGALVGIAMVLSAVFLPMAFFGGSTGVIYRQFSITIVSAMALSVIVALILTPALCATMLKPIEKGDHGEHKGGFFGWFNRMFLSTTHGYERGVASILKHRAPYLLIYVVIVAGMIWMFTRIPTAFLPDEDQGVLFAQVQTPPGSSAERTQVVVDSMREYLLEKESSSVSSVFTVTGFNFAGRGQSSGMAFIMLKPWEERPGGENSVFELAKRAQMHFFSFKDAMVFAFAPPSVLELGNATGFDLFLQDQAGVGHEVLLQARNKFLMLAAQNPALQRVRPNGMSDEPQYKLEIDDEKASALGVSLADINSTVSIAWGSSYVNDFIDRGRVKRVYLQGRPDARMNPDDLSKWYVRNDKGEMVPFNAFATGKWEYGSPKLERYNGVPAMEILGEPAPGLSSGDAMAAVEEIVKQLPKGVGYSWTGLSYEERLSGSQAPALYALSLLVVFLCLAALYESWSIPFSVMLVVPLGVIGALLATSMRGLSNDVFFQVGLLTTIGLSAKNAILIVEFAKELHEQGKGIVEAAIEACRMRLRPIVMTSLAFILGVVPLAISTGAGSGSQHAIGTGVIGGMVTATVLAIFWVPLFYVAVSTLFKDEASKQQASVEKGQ

On to `CCN1CCN(C(=O)N[C@@H](C(=O)N[C@@H]2C(=O)N3C(C(=O)O)=C(CSc4nnnn4C)CS[C@H]23)c2ccc(O)cc2)C(=O)C1=O` [OU-634, cefoperazone], for which the MIC turned out to be 3.9 mg/L (≈ 6.04 µM) in assay [1], 0.97 mg/L (≈ 1.5 µM) in assay [2] and 0.97 mg/L (≈ 1.5 µM) in assay [3].

On to `CO/N=C(\C(=O)N[C@@H]1C(=O)N2C(C(=O)O)=C(CSc3nc(=O)c(O)nn3C)CS[C@H]12)c1csc(N)n1` [OU-640, ceftriaxone], for which the MIC in assay [4] came out at 3.9 mg/L (≈ 7.03 µM); in assay [1], 15.6 mg/L (≈ 28.1 µM); in assay [2], 0.06 mg/L (≈ 0.108 µM); in assay [3] it was 0.97 mg/L (≈ 1.75 µM).

As for `CO[C@@]1(NC(=O)C2SC(=C(C(N)=O)C(=O)O)S2)C(=O)N2C(C(=O)O)=C(CSc3nnnn3C)CS[C@@H]21` (stereo partly drawn) [OU-654, cefotetan], the MIC is 100 mg/L (≈ 174 µM) in assay [4], above 400 mg/L in assay [1], 12.5 mg/L (≈ 21.7 µM) in assay [2] and 200 mg/L (≈ 347 µM) in assay [3].

For the compound `O=C(O)C1=C(CSc2nnnn2CS(=O)(=O)O)CS[C@@H]2[C@H](NC(=O)[C@H](O)c3ccccc3)C(=O)N12` [OU-666, cefonicid], the values for the MIC in assay [1], in assay [2] and in assay [3] were 62.5 mg/L (≈ 115 µM), 3.9 mg/L (≈ 7.19 µM) and 3.9 mg/L (≈ 7.19 µM), respectively.

As for `Nc1nc(/C(=C/CC(=O)O)C(=O)N[C@@H]2C(=O)N3C(C(=O)O)=CCS[C@H]23)cs1` [OU-668, ceftibuten], the MIC in assay [4] is 1000 mg/L (≈ 2440 µM); in assay [1] it was above 2000 mg/L; in assay [2], 128 mg/L (≈ 312 µM); in assay [3] it was 2000 mg/L (≈ 4870 µM).

As to `CO[C@@]1(NC(=O)C(C(=O)O)c2ccc(O)cc2)C(=O)N2C(C(=O)O)=C(CSc3nnnn3C)CO[C@@H]21` (stereo partly drawn) [OU-672, moxalactam], the MIC was found to be 62.5 mg/L (≈ 120 µM) in assay [4], 62.5 mg/L (≈ 120 µM) in assay [1], 0.97 mg/L (≈ 1.86 µM) in assay [2] and 15.6 mg/L (≈ 30 µM) in assay [3].

Take `Cc1cc(O)c(C(=O)N[C@@H](C(=O)N[C@@H]2C(=O)N3C(C(=O)O)=C(CSc4nnnn4C)CS[C@H]23)c2ccc(O)cc2)cn1` [OU-031452, cefpiramide]: the MIC in assay [4] is above 1000 mg/L; in assay [1] it was above 1000 mg/L; in assay [2], 250 mg/L (≈ 408 µM); in assay [3], above 1000 mg/L.

For the compound `C[N+](CCN)(CCN)CCC[C@H](N)C(=O)N[C@H](CCc1ccc(C(F)(F)F)cc1)C(=O)Nc1cnc2ccccc2c1` [compound 17], the equilibrium dissociation constant (Kd) at MexB worked out at 24.2 µM.
